SMILES strings stand for the structures. A value given as a limit tells only on which side of the number the result lay.

In this experiment the target is hSK2 (Homo sapiens, UniProt Q9H2S1). The experiment in a line: Assay for compound activity towards hSK channels (86Rb+ efflux). As to conditions: 86Rb+ efflux stimulated with calcium ionophore; drug 0.01 to 30 μM in EBSS; read-out: hSK2 Inhibitory Activity. In kind it is cell-based. How it is done: 18.1 Assay for Compound Activity Towards hSK Channels Cells expressing small conductance, calcium activated potassium channels, such as SK-like channels were loaded with ^86Rb^+ by culture in media containing ^86RbCl. Following loading, the culture media was removed and the cells were washed in EBSS to remove residual traces of ^86Rb^+. Cells were preincubated with the drug (0.01 to 30 μM in EBSS) and then ^86Rb^+ efflux was stimulated by exposing cells to EBSS solution supplemented with a calcium ionophore, such as ionomycin, in the continued presence of the drug. After a suitable efflux period, the EBSS/ionophore solution was removed from the cells and the ^86Rb^+ content was determined by Cherenkov counting (Wallac Trilux). Cells were then lysed with a SDS solution and the ^86Rb^+ content of the lysate was determined. Percent ^86Rb^+ efflux was calculated according to the following equation: (^86Rb^+ content in EBSS/(^86Rb^+ content in EBSS+^86Rb^+ content of the lysate))×100
As for `CCOC(=O)c1c[nH]nc1Nc1cncc(-c2ccccn2)n1` [3-(6-Pyridin-2-yl-pyrazin-2-ylamino)-1H-pyrazole-4-carboxylic acid ethyl ester], the IC50 was in the range of 3 to 30 µM. For `O=C(c1ccccc1)c1nccnc1Nc1cncc(-c2ccccn2)n1` [Phenyl-[3-(6-pyridin-2-yl-pyrazin-2-ylamino)-pyrazin-2-yl]-methanone], the IC50 is 3 to 30 µM.

For `c1ccc(-c2cncc(Nc3nccs3)n2)nc1` [(6-Pyridin-2-yl-pyrazin-2-yl)-thiazol-2-yl-amine], the IC50 is 3 to 30 µM. The value for `Brc1ccc(Nc2cnc(Br)c(-c3ccccn3)n2)nc1` [(5-Bromo-pyridin-2-yl)-(5-bromo-6-pyridin-2-yl-pyrazin-2-yl)-amine] was 3 to 30 µM. `c1ccc(-c2cncc(Nc3nncs3)n2)nc1` [(6-Pyridin-2-yl-pyrazin-2-yl)-[1,3,4]thiadiazol-2-yl-amine]: the IC50 lay in the range of 3 to 30 µM. Under `c1ccc(-c2cncc(Nc3ccc(-c4ccco4)cn3)n2)nc1` [(5-Furan-2-yl-pyridin-2-yl)-(6-pyridin-2-yl-pyrazin-2-yl)-amine] stands 0.05 to 1 µM; under `CCN(CC)C(=O)c1ccc(Nc2cncc(-c3ccccn3)n2)nc1` [N,N-Diethyl-6-(6-pyridin-2-yl-pyrazin-2-ylamino)-nicotinamide], 3 to 30 µM. The value for `Brc1ccc(Nc2cncc(-c3ccccn3)n2)nc1` [(5-Bromo-pyridin-2-yl)-(6-pyridin-2-yl-pyrazin-2-yl)-amine] was 0.05 to 1 µM; that for `Cc1noc(Nc2cncc(-c3ccccn3)n2)c1C` [(3,4-Dimethyl-isoxazol-5-yl)-(6-pyridin-2-yl-pyrazin-2-yl)-amine] was 3 to 30 µM. Under `c1ccc(-c2cncc(Nc3nnn[nH]3)n2)nc1` [(6-Pyridin-2-yl-pyrazin-2-yl)-(1H-tetrazol-5-yl)-amine] stands 3 to 30 µM. For `c1ccc(-c2cncc(Nc3cc(-c4ccco4)n[nH]3)n2)nc1` [(5-Furan-2-yl-2H-pyrazol-3-yl)-(6-pyridin-2-yl-pyrazin-2-yl)-amine], the IC50 was 3 to 30 µM. On to `Oc1cccnc1Nc1cncc(-c2ccccn2)n1` [2-(6-Pyridin-2-yl-pyrazin-2-ylamino)-pyridin-3-ol], for which the IC50 was 3 to 30 µM. Regarding `Cc1ccnc(Nc2cncc(-c3cc(N4CCCC4)ccn3)n2)c1` [(4-Methyl-pyridin-2-yl)-[6-(4-pyrrolidin-1-yl-pyridin-2-yl)-pyrazin-2-yl]-amine], the IC50 lay within 0.05 to 1 µM. As to `c1ccc(-c2cncc(Nc3ccncn3)n2)nc1` [(6-Pyridin-2-yl-pyrazin-2-yl)-pyrimidin-4-yl-amine], the IC50 fell in the range of 3 to 30 µM. Consider `CN1CCN(c2ccc(Nc3cncc(-c4ccccn4)n3)nc2)C(=O)C1` [4-Methyl-1-[6-(6-pyridin-2-yl-pyrazin-2-ylamino)-pyridin-3-yl]-piperazin-2-one], for which the IC50 lay within 3 to 30 µM. The value for `Cc1ccc(-c2cncc(Nc3ccc(F)cn3)n2)nc1` [(5-Fluoro-pyridin-2-yl)-[6-(5-methyl-pyridin-2-yl)-pyrazin-2-yl]-amine] was 3 to 30 µM; that for `Cc1ccnc(-c2cncc(Nc3ccccn3)n2)c1` [[6-(4-Methyl-pyridin-2-yl)-pyrazin-2-yl]-pyridin-2-yl-amine] was 0.05 to 1 µM; that for `CC1CCN(c2ccc(Nc3cncc(-c4ccccn4)n3)nc2)CC1` [(4-Methyl-3,4,5,6-tetrahydro-2H-[1,3′]bipyridinyl-6′-yl)-(6-pyridin-2-yl-pyrazin-2-yl)-amine] was 0.05 to 1 µM. The value for `NC(=O)c1cnn(-c2ccccc2)c1Nc1cncc(-c2ccccn2)n1` [1-Phenyl-5-(6-pyridin-2-yl-pyrazin-2-ylamino)-1H-pyrazole-4-carboxylic acid amide] was 3 to 30 µM.

In the case of `c1ccc(-c2cncc(Nc3cnccn3)n2)nc1` [Pyrazin-2-yl-(6-pyridin-2-yl-pyrazin-2-yl)-amine], the IC50 lay in the range of 0.05 to 1 µM. Under `COc1cccc(-c2cncc(Nc3ccc(Cl)cn3)n2)n1` [(5-Chloro-pyridin-2-yl)-[6-(6-methoxy-pyridin-2-yl)-pyrazin-2-yl]-amine] stands 3 to 30 µM; under `FC(F)(F)c1cnc(Nc2cncc(-c3ccccn3)n2)c(Cl)c1` [(3-Chloro-5-trifluoromethyl-pyridin-2-yl)-(6-pyridin-2-yl-pyrazin-2-yl)-amine], 3 to 30 µM; under `c1ccc(Nc2cncc(-c3cc4ccccc4s3)n2)nc1` [(6-Benzo[b]thiophen-2-yl-pyrazin-2-yl)-pyridin-2-yl-amine], 3 to 30 µM.

Consider `Cc1ccnc(Nc2cncc(-c3ccccn3)n2)c1` [(4-Methyl-pyridin-2-yl)-(6-pyridin-2-yl-pyrazin-2-yl)-amine], for which the IC50 is less than 0.05 µM. Under `CN(C)c1ccc(-c2ccc(Nc3cncc(-c4ccccn4)n3)nc2)cc1` [[5-(4-Dimethylamino-phenyl)-pyridin-2-yl]-(6-pyridin-2-yl-pyrazin-2-yl)-amine] stands 0.05 to 1 µM; under `Fc1cccc(-c2ccc(Nc3cncc(-c4ccccn4)n3)nc2)c1` [[5-(3-Fluoro-phenyl)-pyridin-2-yl]-(6-pyridin-2-yl-pyrazin-2-yl)-amine], 0.05 to 1 µM. Under `c1ccc(-c2cncc(Nc3nc[nH]n3)n2)nc1` [(6-Pyridin-2-yl-pyrazin-2-yl)-(1H-[1,2,4]triazol-3-yl)-amine] stands 3 to 30 µM; under `c1ccc(COc2cccnc2Nc2cncc(-c3ccccn3)n2)cc1` [(3-Benzyloxy-pyridin-2-yl)-(6-pyridin-2-yl-pyrazin-2-yl)-amine], 3 to 30 µM.

On to `c1ccc(-c2ccc(Nc3cncc(-c4nccs4)n3)nc2)cc1` [(5-Phenyl-pyridin-2-yl)-(6-thiazol-2-yl-pyrazin-2-yl)-amine], for which the IC50 lay within 3 to 30 µM.

As to `COCCN(C)c1ccc(Nc2cncc(-c3ccccn3)n2)nc1` [N^5-(2-Methoxy-ethyl)-N^5-methyl-N^2-(6-pyridin-2-yl-pyrazin-2-yl)-pyridine-2,5-diamine], the IC50 was less than 0.05 µM.

Turning to `Clc1ccc(-c2ccc(Nc3cncc(-c4ccccn4)n3)nc2)s1` [[5-(5-Chloro-thiophen-2-yl)-pyridin-2-yl]-(6-pyridin-2-yl-pyrazin-2-yl)-amine], the IC50 is 0.05 to 1 µM.

Take `NC(=O)c1ccc(Nc2cncc(-c3ccccn3)n2)nc1` [6-(6-Pyridin-2-yl-pyrazin-2-ylamino)-nicotinamide]: the IC50 is 3 to 30 µM.

`c1ccc(Nc2cncc(-c3cc4ccccc4o3)n2)nc1` [(6-Benzofuran-2-yl-pyrazin-2-yl)-pyridin-2-yl-amine]: the IC50 is 3 to 30 µM. In the case of `c1ccc(-c2cncc(Nc3ccc(-c4ccsc4)cn3)n2)nc1` [(6-Pyridin-2-yl-pyrazin-2-yl)-(5-thiophen-3-yl-pyridin-2-yl)-amine], the IC50 lay within 0.05 to 1 µM. For `CCOC(=O)c1sc(Nc2cncc(-c3ccccn3)n2)nc1-c1ccccc1` [4-Phenyl-2-(6-pyridin-2-yl-pyrazin-2-ylamino)-thiazole-5-carboxylic acid ethyl ester], the IC50 lay within 3 to 30 µM. Under `COc1ccccc1-c1ccc(Nc2cncc(-c3ccccn3)n2)nc1` [[5-(2-Methoxy-phenyl)-pyridin-2-yl]-(6-pyridin-2-yl-pyrazin-2-yl)-amine] stands 0.05 to 1 µM.

`Fc1ccc(Nc2cncc(-c3cc(N4CCCC4)ccn3)n2)nc1` [(5-Fluoro-pyridin-2-yl)-[6-(4-pyrrolidin-1-yl-pyridin-2-yl)-pyrazin-2-yl]-amine]: the IC50 lay in the range of 3 to 30 µM.

With `COc1cccc(-c2cncc(-c3cccc(OC)n3)n2)n1` [2,6-Bis-(6-methoxy-pyridin-2-yl)-pyrazine], the IC50 lay in the range of 3 to 30 µM. Under `Cc1ccc(-c2cncc(Nc3ccccn3)n2)nc1` [[6-(5-Methyl-pyridin-2-yl)-pyrazin-2-yl]-pyridin-2-yl-amine] stands 0.05 to 1 µM.

Consider `c1ccc(-c2cncc(Nc3ccc(N4CCCC4)cn3)n2)nc1` [(6-Pyridin-2-yl-pyrazin-2-yl)-(5-pyrrolidin-1-yl-pyridin-2-yl)-amine], for which the IC50 was less than 0.05 µM. The value for `CC(C)(C)c1nnc(Nc2cncc(-c3ccccn3)n2)s1` [(5-tert-Butyl-[1,3,4]thiadiazol-2-yl)-(6-pyridin-2-yl-pyrazin-2-yl)-amine] was 3 to 30 µM; that for `Cc1ccnc(Nc2cncc(-c3ccccn3)n2)c1[N+](=O)[O-]` [(4-Methyl-3-nitro-pyridin-2-yl)-(6-pyridin-2-yl-pyrazin-2-yl)-amine] was 3 to 30 µM. Under `NC(=O)c1ncc(-c2ccccn2)nc1Nc1ccccn1` [5-Pyridin-2-yl-3-(pyridin-2-ylamino)-pyrazine-2-carboxylic acid amide] stands 3 to 30 µM; under `Cc1cnn(-c2cncc(Nc3ccc(I)cn3)n2)c1` [(5-Iodo-pyridin-2-yl)-[6-(4-methyl-pyrazol-1-yl)-pyrazin-2-yl]-amine], 3 to 30 µM; under `Cn1c(Nc2cncc(-c3ccccn3)n2)nc2ccccc21` [(1-Methyl-1H-benzoimidazol-2-yl)-(6-pyridin-2-yl-pyrazin-2-yl)-amine], 3 to 30 µM. The value for `c1ccc(Nc2cncc(-c3ccccn3)n2)nc1` [Pyridin-2-yl-(6-pyridin-2-yl-pyrazin-2-yl)-amine] was less than 0.05 µM. `COc1cccc(-c2cncc(Nc3ccccn3)n2)n1` [[6-(6-Methoxy-pyridin-2-yl)-pyrazin-2-yl]-pyradin-2-yl-amine]: the IC50 lay within 0.05 to 1 µM. The value for `Cc1nnc(Nc2cncc(-c3ccccn3)n2)s1` [(5-Methyl-[1,3,4]thiadiazol-2-yl)-(6-pyridin-2-yl-pyrazin-2-yl)-amine] was 3 to 30 µM; that for `Cc1cc(Nc2cncc(-c3ccccn3)n2)[nH]n1` [(5-Methyl-2H-pyrazol-3-yl)-(6-pyridin-2-yl-pyrazin-2-yl)-amine] was 0.05 to 1 µM.

Values taken from US7642354B2, “Polycyclic pyrazines as potassium ion channel modulators” (Icagen, Inc., priority 2004, dated 2010).
